ChEMBL document CHEMBL1132039, “Isotope edited NMR studies of glycosidases: design and synthesis of a novel glycosidase inhibitor” (Bioorg Med Chem Lett, 1999)

Columns and labels:
[1] = Inhibitory potency against glucosidase was determined.; set-up: species or system Saccharomyces cerevisiae
[2] = target: Lysosomal alpha-glucosidase (Homo sapiens, UniProt P10253); assay: Inhibitory potency for alpha-glucosidase was determined at concentration up to 3.0 mM; No inhibition; set-up: species or system Saccharomyces cerevisiae

Row | Structure (SMILES) | Ki [1] [µM] | Ki [2]
1 | NCC(=O)N1C[C@H](O)[C@@H](O)[C@H](O)[C@H]1CO | 23 | 
2 | OC[C@@H]1[C@@H](O)[C@H](O)[C@@H](O)CN1Cc1ccccc1 |  | Not Active
